In US20080188530A1 (priority 2004, published 2008):
Where two headings read alike, the source gives them in different places.

What was measured:
[1] = system: Pyrenophora [syn. Drechslera] teres; assay: Activity against net blotch of barley caused by Pyrenophora teres (protective spray on potted barley seedlings); type: in vivo; settings: barley cv. Igri, inoculated 5 days after spraying, rated after 6 days, efficacy in % of untreated control (Abbot)
Phytophthora infestans = type: in vivo; settings: tomato plants, infected 5 days after spraying, rated after 6 days, efficacy in % of untreated control (Abbot)

Row | SMILES | Observed efficacy (%) ([1]; 16 ppm) | Observed efficacy (%) (Phytophthora infestans; 16 ppm) | Observed efficacy (%) (Phytophthora infestans; 63 ppm) | Observed efficacy (%) ([1]; 63 ppm)
1 | COCC(=O)N(c1c(C)cccc1C)C(C)C(=O)OC (racemic) [metalaxyl, methyl N-(methoxyacetyl)-N-(2,6-xylyl)-DL-alaninate] | 0 |  |  | 
2 | O=C(Nc1ccccc1-c1ccc(Cl)cc1)c1cccnc1Cl [boscalid, 2-chloro-N-(4′-chlorobiphenyl-2-yl)nicotinamide] |  | 0 |  | 
3 | CO/C=C(/C(=O)OC)c1ccccc1CO/N=C(C)/C=C/c1ccc(Cl)cc1 [enestroburin, methyl 2-{2-[3-(4-chlorophenyl)-1-methylallylideneaminooxymethyl]phenyl}-3-methoxyacrylate] | 44 | 0 | 11 | 56
